molecular target: JAK1 (Homo sapiens (Human), UniProt P23458); test: Jak Biochemical HTRF Assay, JAK1; conditions: HTRF biochemical assay, GST-tagged catalytic domain; top concentration tested […]; read-out: JAK1 IC50
From the text: Jak Biochemical HTRF Assay Protocol
Subsequent reagent additions employed an Agilent Bravo.

JAK1, sequence (P23458 875-1153): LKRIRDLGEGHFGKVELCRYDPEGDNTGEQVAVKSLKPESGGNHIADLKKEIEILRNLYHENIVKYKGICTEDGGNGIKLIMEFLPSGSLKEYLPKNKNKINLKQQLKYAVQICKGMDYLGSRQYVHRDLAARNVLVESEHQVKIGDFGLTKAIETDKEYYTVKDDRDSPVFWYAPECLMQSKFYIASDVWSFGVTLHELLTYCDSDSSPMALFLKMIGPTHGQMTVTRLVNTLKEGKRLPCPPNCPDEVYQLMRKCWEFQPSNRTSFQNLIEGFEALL

Going from `N#CCC1(n2cc(C(N)=O)c(Nc3ccccc3)n2)CN(C(=O)OCCc2cccc3ccccc23)C1` [Example 30-54, 2-naphthalen-1-ylethyl 3-[4-carbamoyl-3-(phenylamino)-1H-pyrazol-1-yl]-3-(cyanomethyl)azetidine-1-carboxylate] to `N#CCC1(n2cc(C(N)=O)c(Nc3ccccc3)n2)CN(C(=O)OCCc2ccccc2)C1` [Example 30-58, 2-phenylethyl 3-[4-carbamoyl-3-(phenylamino)-1H-pyrazol-1-yl]-3-(cyanomethyl)azetidine-1-carboxylate], the IC50 falls from 375 nM to 76 nM (4.9-fold).

Compared with `CC(C)(C)COC(=O)N1CC(CC#N)(n2cc(C(N)=O)c(Nc3ccccc3)n2)C1` [Example 30-56, 2,2-dimethylpropyl 3-[4-carbamoyl-3-(phenylamino)-1H-pyrazol-1-yl]-3-(cyanomethyl)azetidine-1-carboxylate], `CCOC(=O)C(C)NC(=O)N1CC(CC#N)(n2cc(C(N)=O)c(Nc3ccccc3)n2)C1` (centres unmarked) [Example 38-9, ethyl N-({3-[4-carbamoyl-3-(phenylamino)-1H-pyrazol-1-yl]-3-(cyanomethyl)azetidin-1-yl}carbonyl)alaninate] is 2.1-fold higher in IC50: 18 nM for the first, 38 nM for the second. The first is the more potent here.

First: N#CCC1(n2cc(C(N)=O)c(Nc3ccccc3)n2)CN(C(=O)OC2CCOCC2)C1 [Example 30-63, tetrahydro-2H-pyran-4-yl 3-[4-carbamoyl-3-(phenylamino)-1H-pyrazol-1-yl]-3-(cyanomethyl)azetidine-1-carboxylase]
Second: CN1CCN(CCOC(=O)N2CC(CC#N)(n3cc(C(N)=O)c(Nc4ccccc4)n3)C2)CC1 [Example 30-72, 2-(4-methylpiperazin-1-yl)ethyl 3-[4-carbamoyl-3-(phenylamino)-1H-pyrazol-1-yl]-3-(cyanomethyl)azetidine-1-carboxylate]
The IC50 of the first is 6.5-fold lower: 11 nM for the first, 72 nM for the second. The first is the more potent here.

First: CS(=O)(=O)c1ccc(Nc2nn(C3(CC#N)CN(C(=O)OC4CCCC4)C3)cc2C(N)=O)cc1 [Example 30-74, cyclopentyl 3-(4-carbamoyl-3-{[4-(methylsulfonyl)phenyl]amino}-1H-pyrazol-1-yl)-3-(cyanomethyl)azetidine-1-carboxylate]
Second: N#CCC1(n2cc(C(N)=O)c(Nc3ccc(S(=O)(=O)C(F)F)cc3)n2)CCC(N2CC(F)C2)CC1 (stereo not drawn) [Example 40-91, Cis or trans 1-[1-(cyanomethyl)-4-(3-fluoroazetidin-1-yl)cyclohexyl]-3-({4-[(difluoromethyl)sulfonyl]phenyl}amino)-1H-pyrazole-4-carboxamide]
The IC50 of the first is 11-fold lower: 6 nM for the first, 67 nM for the second.

Going from `N#CCC1(n2cc(C(N)=O)c(Nc3ccccc3)n2)CCN(C(=O)c2ccccn2)CC1` [Example 34-9, 1-[4-(cyanomethyl)-1-(pyridin-2-ylcarbonyl)piperidin-4-yl]-3-(phenylamino)-1H-pyrazole-4-carboxamide] to `N#CCC1(n2cc(C(N)=O)c(Nc3ccccc3)n2)CN(C(=O)c2ccccn2)C1` [Example 34-38, 1-[3-(cyanomethyl)-1-(pyridin-2-ylcarbonyl)azetidin-3-yl]-3-(phenylamino)-1H-pyrazole-4-carboxamide], the IC50 rises from 18 nM to 59 nM (3.3-fold).

First: N#CCC1(n2cc(C(N)=O)c(Nc3ccccc3)n2)CCN(C(=O)c2cnccn2)CC1 [Example 34-11, 1-[4-(cyanomethyl)-1-(pyrazin-2-ylcarbonyl)piperidin-4-yl]-3-(phenylamino)-1H-pyrazole-4-carboxamide]
Second: N#CCC1(n2cc(C(N)=O)c(Nc3ccccc3)n2)CCN(C(=O)Nc2ccc(C#N)cc2)CC1 [Example 38-47, 4-[4-carbamoyl-3-(phenylamino)-1H-pyrazol-1-yl]-4-(cyanomethyl)-N-(4-cyanophenyl)piperidine-1-carboxamide]
The IC50 of the first is 60-fold higher: 12 nM for the first, 0.2 nM for the second. The second is the more potent here.

First: N#CCC1(n2cc(C(N)=O)c(Nc3ccc(F)cc3)n2)CCN(C(=O)CC(F)(F)F)CC1 [Example 35-1, 1-(4-(Cyanomethyl)-1-(3,3,3-trifluoropropanoyl)piperidin-4-yl)-3-(4-fluorophenylamino)-1H-pyrazole-4-carboxamide]
Second: N#CCC1(n2cc(C(N)=O)c(Nc3ccc(F)cc3)n2)CCC(NCC(F)(F)F)CC1 (stereo not drawn) [Example 40-98, Cis or trans 1-{1-(cyanomethyl)-4-[(2,2,2-trifluoroethyl)amino]cyclohexyl}-3-[(4-fluorophenyl)amino]-1H-pyrazole-4-carboxamide]
The IC50 of the first is 10-fold lower: 0.1 nM for the first, 1 nM for the second. The first is the more potent here.

Going from `N#CCC1(n2cc(C(N)=O)c(Nc3ccccc3)n2)CCN(S(=O)(=O)c2ccc(C(F)(F)F)cc2)CC1` [Example 37-13, 1-[4-(cyanomethyl)-1-{[4-(trifluoromethyl)phenyl]sulfonyl}piperidin-4-yl]-3-(phenylamino)-1H-pyrazole-4-carboxamide] to `N#CCC1(n2cc(C(N)=O)c(Nc3ccc(C(F)(F)F)cc3)n2)CCC(N2CC(F)C2)CC1` (centres unmarked) [Example 39-2, 1-[1-(cyanomethyl)-4-(3-fluoroazetidin-1-yl)cyclohexyl]-3-{[4-(trifluoromethyl)phenyl]amino}-1H-pyrazole-4-carboxamide], the IC50 falls from 3 nM to 0.1 nM (30-fold).

First: CCc1ccc(NC(=O)N2CC(CC#N)(n3cc(C(N)=O)c(Nc4ccccc4)n3)C2)cc1 [Example 38-34, 1-{3-(cyanomethyl)-1-[(4-ethylphenyl)carbamoyl]azetidin-3-yl}-3-(phenylamino)-1H-pyrazole-4-carboxamide]
Second: Cc1ccc(F)cc1NC(=O)N1CC(CC#N)(n2cc(C(N)=O)c(Nc3ccccc3)n2)C1 [Example 38-38, 1-{3-(cyanomethyl)-1-[(5-fluoro-2-methylphenyl)carbamoyl]azetidin-3-yl}-3-(phenylamino)-1H-pyrazole-4-carboxamide]
The IC50 of the first is 6.5-fold lower: 2 nM for the first, 13 nM for the second. The first is the more potent here.

First: N#CCC1(n2cc(C(N)=O)c(Nc3ccnc(F)c3)n2)CCC(Nc2ccccn2)CC1 (stereo not drawn) [Example 40-4, Cis or trans 1-[1-(cyanomethyl)-4-(pyridin-2-ylamino)cyclohexyl]-3-[(2-fluoropyridin-4-yl)amino]-1H-pyrazole-4-carboxamide]
Second: N#CCC1(n2cc(C(N)=O)c(Nc3ccnc(F)c3)n2)CCC(Nc2ccccc2)CC1 (stereo not drawn) [Example 40-86, Cis or trans 1-[1-(cyanomethyl)-4-(phenylamino)cyclohexyl]-3-[(2-fluoropyridin-4-yl)amino]-1H-pyrazole-4-carboxamide]
The IC50 of the first is 1700-fold higher: 102 nM for the first, 0.06 nM for the second.

Going from `N#CCC1(n2cc(C(N)=O)c(Nc3ccnc(F)c3)n2)CCC(N2CCC(O)CC2)CC1` (stereo not drawn) [Example 40-13, Cis or trans 1-[1-(cyanomethyl)-4-(4-hydroxypiperidin-1-yl)cyclohexyl]-3-[(2-fluoropyridin-4-yl)amino]-1H-pyrazole-4-carboxamide] to `N#CCC1(n2cc(C(N)=O)c(Nc3ccnc(F)c3)n2)CCC(Nc2ccccn2)CC1` (stereo not drawn) [Example 40-22, Cis or trans 1-[1-(cyanomethyl)-4-(pyridin-2-ylamino)cyclohexyl]-3-[(2-fluoropyridin-4-yl)amino]-1H-pyrazole-4-carboxamide], the IC50 falls from 115 nM to 4 nM (29-fold). The second is the more potent here.

First: N#CCC1(n2cc(C(N)=O)c(Nc3ccnc(F)c3)n2)CCC(Nc2ccccc2F)CC1 (stereo not drawn) [Example 40-17, Cis or trans 1-{1-(cyanomethyl)-4-[(2-fluorophenyl)amino]cyclohexyl}-3-[(2-fluoropyridin-4-yl)amino]-1H-pyrazole-4-carboxamide]
Second: N#CCC1(n2cc(C(N)=O)c(Nc3ccc(F)cc3)n2)CCC(Nc2cc(F)ccc2F)CC1 (stereo not drawn) [Example 40-50, Cis and trans 1-{1-(cyanomethyl)-4-[(2,5-difluorophenyl)amino]cyclohexyl}-3-[(4-fluorophenyl)amino]-1H-pyrazole-4-carboxamide]
The IC50 of the first is 2.5-fold lower: 0.04 nM for the first, 0.1 nM for the second. The first is the more potent here.

First: N#CCC1(n2cc(C(N)=O)c(Nc3ccnc(F)c3)n2)CCC(Nc2ccccc2F)CC1 (stereo not drawn) [Example 40-24, Cis or trans 1-{1-(cyanomethyl)-4-[(2-fluorophenyl)amino]cyclohexyl}-3-[(2-fluoropyridin-4-yl)amino]-1H-pyrazole-4-carboxamide]
Second: N#CCC1(n2cc(C(N)=O)c(Nc3ccc(F)cc3)n2)CCC(Nc2ccc(F)c(F)c2)CC1 (stereo not drawn) [Example 40-35, Cis or trans 1-{1-(cyanomethyl)-4-[(3,4-difluorophenyl)amino]cyclohexyl}-3-[(4-fluorophenyl)amino]-1H-pyrazole-4-carboxamide]
The IC50 of the first is 10-fold higher: 8 nM for the first, 0.8 nM for the second. The second is the more potent here.

Compared with `N#CCC1(n2cc(C(N)=O)c(Nc3ccc(F)cc3)n2)CCC(NCCO)CC1` (stereo not drawn) [Example 40-68, Cis or trans 1-{1-(cyanomethyl)-4-[(2-hydroxyethyl)amino]cyclohexyl}-3-[(4-fluorophenyl)amino]-1H-pyrazole-4-carboxamide], `CNC1CCC(CC#N)(n2cc(C(N)=O)c(Nc3ccc(F)cc3)n2)CC1` (stereo not drawn) [Example 40-78, Cis or trans 1-[1-(cyanomethyl)-4-(methylamino)cyclohexyl]-3-[(4-fluorophenyl)amino]-1H-pyrazole-4-carboxamide] is 5.8-fold lower in IC50: 69 nM for the first, 12 nM for the second.

`N#CCC1(n2cc(C(N)=O)c(Nc3ccc(F)cc3)n2)CCC(NCc2ccc(C#N)cc2)CC1` (stereo not drawn) [Example 40-97, Cis or trans 1-{4-[(4-cyanobenzyl)amino]-1-(cyanomethyl)cyclohexyl}-3-[(4-fluorophenyl)amino]-1H-pyrazole-4-carboxamide] and `N#CCC1(n2cc(C(N)=O)c(Nc3ccc(F)cc3)n2)CCC(NCC(F)(F)F)CC1` (stereo not drawn) [Example 40-101, Cis or trans 1-{1-(cyanomethyl)-4-[(2,2,2-trifluoroethyl)amino]cyclohexyl}-3-[(4-fluorophenyl)amino]-1H-pyrazole-4-carboxamide] are within 1.5-fold of each other in IC50: 25 nM for the first, 18 nM for the second.

same assay, conditions: read-out: JAK1 IC50

`N#CCC1(n2cc(C(N)=O)c(Nc3ccc(S(=O)(=O)C(F)F)cc3)n2)CCC(Nc2cccnc2)CC1` (stereo not drawn) [Example 40-8, Cis or trans 1-[1-(cyanomethyl)-4-(pyridin-3-ylamino)cyclohexyl]-3-({4-[(difluoromethyl)sulfonyl]phenyl}amino)-1H-pyrazole-4-carboxamide] and `N#CCC1(n2cc(C(N)=O)c(Nc3ccc(S(=O)(=O)C(F)F)cc3)n2)CCC(Nc2ccccc2O)CC1` (stereo not drawn) [Example 40-48, Cis or trans 1-{1-(cyanomethyl)-4-[(2-hydroxyphenyl)amino]cyclohexyl}-3-({4-[(difluoromethyl)sulfonyl]phenyl}amino)-1H-pyrazole-4-carboxamide] are within 1.5-fold of each other in IC50: 0.3 nM for the first, 0.4 nM for the second.
